Reference: patent US3963716A, “Novel 1-phthalazone derivative, a process for its preparation and a pharmaceutical composition containing it” (priority 1973, dated 1976)
Where two headings read alike, the source gives them in different places.

Tests used:
[1] = system: human platelet; assay: human platelet aggregation in vitro induced by ADP or adrenaline (CPRP); format: cell-based; conditions: 200 s
Procedure: Samples of human CPRP (citrated platelet-rich plasma) were incubated at 37°C. for 200 sec. with 1/10 volume of saline containing various amount of the compound to be tested. To the mixture was then added ADP (3μMole) or adrenaline (1 μg/ml). Intensity of primary and secondary aggregation was measured with a platelet aggregation meter (Chrono-Log, Model 300).
Intensity of ADP- or adrenaline-induced aggregation of each sample, which was incubated with the compound, was compared with that of the same sample incubated with saline. The ratio was expressed as a percentage of intensity of aggregation with the compound against one with saline.
The intensity of primary and secondary aggregation of platelets was measured by the procedure described in H. Yamazaki, T. Sano, et al.; title[Platelet Functions in Thromboembolic Disorders] Thrombosis et Diatheses Haemorrhagica "in press" and the references cited therein.

[2] = system: aorta of rabbits; assay: prevention of cholesterol-induced atherosclerosis in rabbits (surface covered by fatty streaks in the aorta); format: in vivo, albino rabbits; conditions: rabbit aorta; oral 1 mg/Kg daily, 15 weeks, diet with 1% cholesterol; placebo 54.6±5.4
Procedure: Forty healthy albino rabbits of the same age and of the same family were used in the experiment.
After the completion of the regimen, the rabbits were killed and the percentage of the surface covered by fatty streaks was measured in each aorta of the rabbits stained with Sundan IV. The percent of the surface covered by fatty streaks in the aorta of the rabbits was measured by the procedure described in T. Shimamoto, F. Numano, T. Fujita; American Heart Journal, 71, 2216 (1966).

[3] = in vivo; conditions: mouse, oral, mice
[4] = system: spontaneously hypertensive rats; assay: hypotensive effect in spontaneously hypertensive rats; format: in vivo, rat; conditions: for Blood Pressure: 50 mg/Kg intraperitoneally
Source text: The present compounds have a unique hypotensive effect in spontaneously hypertensive rats. The spontaneously hypertensive rats, abbreviated as SH rats, are produced by selective breeding of spontaneously hypertensive rats and continuous inbreeding with hypertensive mates, and they might be acknowledged as genetically hypertensive. It is believed that SH rats have a striking similarity to human essential hypertension and their reactions can be extrapolated to this morbid condition.
In the blood pressure test, SH rats weighing 210 - 250 g and aged 13-15 weeks were used, and the compounds tested were administered intraperitoneally. Each value in the Table V hows an average figure for three rats.

[5] = target: cyclic AMP phosphodiesterase; assay: inhibition of cyclic AMP phosphodiesterase, aortic wall media (rabbit); format: biochemical; conditions: 50% inhibition of cyclic AMP phosphodiesterase; read-out: I50, Aortic Wall, Media (rabbit)
Procedure: (§1) The procedure of the experiment was carried out in accordance with the method described in H. Hidaka and M. Shibuya: title "A new assay of cyclic nucleotide phosphodiesterase and its application to humans", Biochemical Medicine, (in press).

[6] = system: cyclic AMP phosphodiesterase; assay: inhibition of cyclic AMP phosphodiesterase, human platelet; format: biochemical; conditions: 50% inhibition of cyclic AMP phosphodiesterase; read-out: I50, Platelet (human)
Procedure: as §1

[7] = 40 μg/ml, intensity with compound vs saline, read-out: Inhibition ratio, primary aggregation, ADP 3 μM
[8] = 40 μg/ml, intensity with compound vs saline, read-out: Inhibition ratio, secondary aggregation, ADP 3 μM
[9] = 80 μg/ml, intensity with compound vs saline, read-out: Inhibition ratio, primary aggregation, ADP 3 μM
[10] = 80 μg/ml, intensity with compound vs saline, read-out: Inhibition ratio, secondary aggregation, ADP 3 μM
[11] = 300 μg/ml, intensity with compound vs saline, read-out: Inhibition ratio, primary aggregation, ADP 3 μM
[12] = 300 μg/ml, intensity with compound vs saline, read-out: Inhibition ratio, secondary aggregation, ADP 3 μM
[13] = read-out: Inhibition ratio, primary aggregation, Adrenaline 1μg/ml
[14] = read-out: Inhibition ratio, secondary aggregation, Adrenaline 1μg/ml

In the case of `CC(=O)Oc1ccccc1C(=O)O` [Acetylsalicylic acid], the activity at 40 µg/mL [1, 7] is reported as 98.9 ± 3.4%, the activity at 40 µg/mL ([1]; 40 μg/ml, intensity with compound vs saline, read-out: Inhibition ratio, primary aggregation, Adrenaline 1μg/ml) is reported as 106 ± 3.3% and the activity at 40 µg/mL [1, 8] is reported as 78 ± 9.9%. It also gave an activity at 40 µg/mL ([1]; 40 μg/ml, intensity with compound vs saline, read-out: Inhibition ratio, secondary aggregation, Adrenaline 1μg/ml) of 45 ± 7.8%, an activity at 80 µg/mL [1, 9] of 95.7 ± 1.8% and an activity at 80 µg/mL ([1]; 80 μg/ml, intensity with compound vs saline, read-out: Inhibition ratio, primary aggregation, Adrenaline 1μg/ml) of 95.6 ± 5.2%. It also gave an activity at 80 µg/mL [1, 10] of 70.2 ± 10.1%, an activity at 80 µg/mL ([1]; 80 μg/ml, intensity with compound vs saline, read-out: Inhibition ratio, secondary aggregation, Adrenaline 1μg/ml) of 46.5 ± 7.9% and an activity at 300 µg/mL [1, 11] of 109 ± 3.6%. The activity at 300 µg/mL ([1]; 300 μg/ml, intensity with compound vs saline, read-out: Inhibition ratio, primary aggregation, Adrenaline 1μg/ml) was 108 ± 2.6%, the activity at 300 µg/mL [1, 12] was 75.5 ± 5.9% and the activity at 300 µg/mL ([1]; 300 μg/ml, intensity with compound vs saline, read-out: Inhibition ratio, secondary aggregation, Adrenaline 1μg/ml) was 62.7 ± 10.7%.

For `O=c1[nH]nc(CO)c2ccccc12` [4-hydroxymethyl-1-phthalazone], the “Percent of surface covered by fatty streaks” value [2] was 36.8±5.2%, the LD50 [3] was 4000 mg/kg and the “Blood Pressure” value ([4]; 1 hr) was 178. The “Blood Pressure” value ([4]; 3 hr) was 179, the “Blood Pressure” value ([4]; 6 hr) was 180 and the “Blood Pressure” value ([4]; 24 hr) was 182. For the same compound, the “Blood Pressure” value ([4]; 48 hr) was 184, the “Blood Pressure” value ([4]; before dosing) was 183 and the “hypotensive effect (in words)” value ([4]; intraperitoneal or oral doses up to 50 mg/Kg) was “did not exhibit a significant hypotensive effect”. The activity at 40 µg/mL [1, 7] was 86.2 ± 2.5%, the activity at 40 µg/mL [1, 8] was 72 ± 6.8% and the activity at 80 µg/mL [1, 9] was 82.4 ± 3.2%. For the same compound, the activity at 80 µg/mL [1, 10] was 64.9 ± 6.7%, the activity at 300 µg/mL [1, 11] was 84.5 ± 2% and the activity at 300 µg/mL [1, 12] was 68.3 ± 3.8%. The activity at 40 µg/mL [1, 13] was 98.8 ± 5.9%, the activity at 80 µg/mL [1, 13] was 92.3 ± 6% and the activity at 300 µg/mL [1, 13] was 85.4 ± 3.1%. The activity at 40 µg/mL [1, 14] was 85.9 ± 10.1%, the activity at 80 µg/mL [1, 14] was 69.2 ± 7.2% and the activity at 300 µg/mL [1, 14] was 60.2 ± 8%.

Compound `Cn1c(=O)c2c(ncn2C)n(C)c1=O` [caffeine] has an IC50 [5] of 460 µM and an IC50 [6] of 350 µM.
